Assay results from patent US8025894B2, “Innovative formulation” (Endura S.p.A., priority 2005, dated 2011).

Tested on: Bemisia tabaci (whitefly) biotype B
Test: Mortality assay (leaf dip bioassay)
Type: in vivo
Settings: adult insects on treated cotton leaf discs, mortality evaluated at 24 and 48 hours
Experimental: The “leaf dip bioassay” used for testing the activity of insecticides against Bemisia tabaci (whitefly) biotype B, was similar to that described by Cahill, M et al, Bull. Entomol. Res. 85, 181-187, 1995.
Cotton plants (Gossypium hirsutum L.) were grown without any exposure to the insecticides. The leaves were cut up into disc shapes and immersed in an aqueous solution of insecticide containing 0.01% of Agral then left to dry at 25° C.
Control leaves were immersed in Agral and distilled water only.
About 20 adult insects were placed onto the small discs of treated cotton leaf.
The insects were allowed to feed and maximum mortality was evaluated at 24 and 48 hours.
LC50% a.i. (=active ingredient) and LC99% a.i. indicate the quantity of insecticide able to achieve mortality for 50% and 99% of the insects tested.
As a comparison, the data obtained with commercial bifenthrin in the absence of the synergistic compound (PBO) and the data obtained with commercial bifenthrin in a mixture with the same quantity of PBO present in the formulation product of example 1 are given in the same table.

Cc1c(COC(=O)[C@@H]2[C@H](/C=C(\Cl)C(F)(F)F)C2(C)C)cccc1-c1ccccc1 (racemic) [Bifenthrin]
LC50% a.i. (quantity of insecticide giving 50% mortality): 0.01 ppm | LC99% a.i. (quantity of insecticide giving 99% mortality): 257 ppm
